Like-named read-outs stand apart in the source and are kept apart here.
Experiments:
M.HhaI [1] = target: T1, M.HhaI (Haemophilus parahaemolyticus, UniProt P05102); assay: M.HhaI-catalysed coupling of biotinylated aziridine cofactors with duplex oligodeoxynucleotide I-II (anion exchange HPLC); type: biochemical, Haemophilus haemolyticus; conditions: for conversion of duplex I-II to coupling product (protein-DNA complex): cofactor 80 μM, duplex I-II 10 μM, M.HhaI 11 μM, 37° C., after 3 h (1), 1.5 h (2), 6.25 h (3)
T1 sequence (P05102 whole entry): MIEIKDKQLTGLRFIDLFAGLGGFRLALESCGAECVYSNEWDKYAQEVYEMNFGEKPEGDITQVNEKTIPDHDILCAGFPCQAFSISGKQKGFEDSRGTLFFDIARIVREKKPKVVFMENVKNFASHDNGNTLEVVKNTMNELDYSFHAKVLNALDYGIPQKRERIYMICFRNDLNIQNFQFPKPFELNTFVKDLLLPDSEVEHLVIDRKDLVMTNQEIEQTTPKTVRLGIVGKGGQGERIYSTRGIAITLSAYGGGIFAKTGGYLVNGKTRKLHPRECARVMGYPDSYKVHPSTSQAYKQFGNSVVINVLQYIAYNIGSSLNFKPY
Experimental: Solutions (400 μL) of aziridine cofactor 1, 2 or 3 (32 nmol, 80 μM), duplex oligodeoxynucleotide I-II (4 nmol, 10 μM) and M.HhaI (4.4 nmol, 11 μM) in buffer (10 mM Tris hydrochloride, pH 7.4, 50 mM sodium chloride, 0.05 mM ethylene-diaminetetraacetic acid and 2 mM β-mercaptoethanol) were incubated at 37° C. The progress of the coupling reactions was monitored by anion exchange HPLC (Poros 10 HQ, 10 μm, 4.6×10 mm, Applied Biosystems). Compounds were eluted with aqueous potassium chloride (0.2 M for 5 min, followed by linear gradients to 0.4 M in 5 min, to 0.6 M in 20 min and to 1 M in 5 min) in Tris hydrochloride buffer (10 mM, pH 7.6) at a flow of 4 mL/min. […] These new compounds are assigned to non-covalent protein-DNA complexes between M.HhaI and the coupling products I^1-II, I^2-II and I^3-II based on their UV absorption ratio at 260 nm and 280 nm.
The presence and functionality of biotin groups in I^1-II, I^2-II and I^3-II were verified by addition of streptavidin. Residual aziridine cofactors 1, 2 or 3 were first removed from the labelled duplexes I^1-II, I^2-II or I^3-II by gel filtration using NAP-5 columns (Amersham Biosciences, Freiburg, Germany) according to the instructions of the supplier. Afterwards, streptavidin (25 μg) was added to the solutions (25 μL, 0.25 nmol I^1-II, I^2-II or I^3-II) and incubation was performed at 37° C. for 30 min.

M.SssI = target: T2, M.SssI (Spiroplasma monobiae, UniProt P15840); assay: M.SssI-catalysed coupling of aziridine cofactors with duplex oligodeoxynucleotides (anion exchange HPLC); type: biochemical
T2 construct: made in house; host or cells: Escherichia coli
T2 sequence (P15840 whole entry): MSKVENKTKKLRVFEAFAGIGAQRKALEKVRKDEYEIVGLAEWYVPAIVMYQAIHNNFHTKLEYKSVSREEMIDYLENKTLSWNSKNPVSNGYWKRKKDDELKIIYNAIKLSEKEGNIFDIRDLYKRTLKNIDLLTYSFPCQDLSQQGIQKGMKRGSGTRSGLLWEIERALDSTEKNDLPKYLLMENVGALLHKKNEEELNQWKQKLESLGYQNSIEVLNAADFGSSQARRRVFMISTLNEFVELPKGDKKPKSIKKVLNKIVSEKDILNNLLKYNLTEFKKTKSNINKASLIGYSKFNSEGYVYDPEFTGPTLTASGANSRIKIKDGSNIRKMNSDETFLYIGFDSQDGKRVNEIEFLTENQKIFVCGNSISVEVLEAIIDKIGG
Experimental: M.SssI-mediated conversion of 6BAz was studied by using a duplex-oligodeoxynucleotide and purified DNA-methyl-transferase. After adjusting and optimizing the reaction conditions (pH and composition of the puffers, temperature, amount of M.SssI) 60% of a hemi-methylated duplex-oligodeoxynucleotide was labelled in a 2 h reaction. When unmethylated duplex-oligodeoxynucleotides were used, approximately 100% was labelled. These diverging results may be due to the presence of minor amounts of natural cofactor AdoMet in the enzyme preparation.
Solutions of hemi-methylated duplex oligodeoxynucleotide I-II (1 μM, I=5′-[…]-3′ (SEQ ID NO:1), II=5′-[…]-3′ with M=5-methyl-2′-deoxycytidine (SEQ ID NO:2)) or non-methylated duplex oligodeoxynucleotide I-III (1 μM, I=5′-[…]-3′ (SEQ ID NO:1), III=5′-[…]-3′ (SEQ ID NO:3)), aziridine cofactor 3 (100 μM) and M.SssI (2 μM) in buffer (10 mM Tris hydrochloride, pH 7.4, 50 mM sodium chloride, 10 mM ethylenediaminetetraacetic acid and 2 mM dithiothreitol) were incubated at 21° C. The progress of the coupling reactions was monitored by anion exchange HPLC (Poros 10 HQ, 10 μm, 4.6×100 mm, Applied Biosystems). Compounds were eluted with aqueous potassium chloride (0.2 M for 5 min, followed by linear gradients to 0.5 M in 5 min and to 1 M in 30 min) in Tris hydrochloride buffer (10 mM, pH 7.6) supplemented with sodium azide (1 mM) at a flow of 4 mL/min.

M.HhaI [2] = target: T1, M.HhaI; assay: Methylation-sensitive biotinylation of linearized pUC19 plasmid DNA with M.HhaI (R.HhaI protection, streptavidin mobility shift); type: biochemical, Haemophilus haemolyticus; conditions: cofactor 80 μM, 37° C. for 2 h, non- vs CpG-methylated LpUC19
Experimental: The reaction with aziridine cofactor 1 and M.HhaI was used to specifically detect DNA methylation of plasmid DNA (FIG. 2). Experiments were performed with R.XmnI-linearized plasmid pUC19 DNA (LpUC19). Cytosine residues within the 5′-CG-3′ DNA sequences (CpG-motives) of LpUC19 were methylated using the DNA (cytosine-5)-methyltransferase M.SssI and the natural cofactor AdoMet. Non- and CpG-methylated LpUC19 were treated with biotinylated aziridine cofactor 1 and M.HhaI, which can only alkylate the first cytosine residue within the 5′-GCGC-3′ DNA sequence if this residue is not blocked by methylation of the inner CpG-motive. The different plasmids where then analyzed by treatment with the restriction endo-nuclease R.HhaI (5′-GCGC-3′ recognition sequence) or streptavidin (tight binding to the biotin group) leading to fragmentation, no reaction or an electrophoretic mobility shift (FIG. 2A). […]
Samples (10 μL) of unmodified (A.), methylated (B. or C.) or biotinylated (C.) LpUC19 plasmid DNA (200 ng) in buffer (10 mM Tris hydrochloride, pH 7.9, 10 mM magnesium chloride, 50 mM sodium chloride, 1 mM 1,4-dithiothreitol and 1 mg/mL bovine serum albumin) were incubated with R.HhaI (2 U) at 37° C. for 1 h. DNA fragmentation was analyzed by agarose gel electrophoresis (1% agarose gel). […]

Substance	substrate for M.HhaI (M.HhaI [1])	conversion of duplex I-II to coupling product (protein-DNA complex) (M.HhaI [1])	cofactor use by M.SssI (transfer onto DNA) (M.SssI)	hemi-methylated duplex-oligodeoxynucleotide labelled (M.SssI; M.SssI, 2 h reaction, optimized conditions) [%]	unmethylated duplex-oligodeoxynucleotide labelled (M.SssI; M.SssI, optimized conditions)	conversion of non-methylated duplex I-III to protein-DNA complexes with coupling product (M.SssI; duplex I-III 1 μM, cofactor 100 μM, M.SssI 2 μM, 21° C., 3 h incubation)	conversion of starting duplex I-II to product duplex I^3-II (M.SssI; hemi-methylated duplex I-II 1 μM, cofactor 100 μM, M.SssI 2 μM, 21° C., 3 h)	cofactor use by M.SssI (transfer onto DNA) (M.SssI; listed as 6BAz)	labelling reaction of LpUC19 plasmid DNA with M.HhaI (M.HhaI [2])
5′-N-Aziridinyl-N6-[1″-(N″-biotinyl)-4″-aminobutyl]-5′-deoxyadenosine [aziridine cofactor 3]	good substrates	almost complete conversion	substrate for M.SssI	60	approximately 100%	almost complete conversion	about 60%	aziridin-cofactor for the DNA-MTase M.SssI	
4-Amino-7-(5′-N-aziridinyl-5′-deoxy-β-D-ribofuranosyl)-5-[1″-(N″-biotinyl)-3″-aminopropyl]-7H-pyrrolo[2,3-d]pyrimidine [aziridine cofactor 1]	good substrates	almost complete conversion							sequence-specific and blocked by CpG-methylation
4-Amino-7-(5′-N-aziridinyl-5′-deoxy-β-D-ribofuranosyl)-5-[1″-(N″-biotinyl)-3″-aminoprop-1-ynyl]-7H-pyrrolo[2,3-d]pyrimidine [aziridine cofactor 2]	good substrates	almost complete conversion							
